Data on 3 molecules can be found in patent US12036201B2, “Combination of a ubiquitin-conjugating enzyme complex inhibitor and antihypertensive and/or hypoglycemic drugs in diabetic kidney disease” (UNIVERSITÀ DEGLI STUDI DI BARI ALDO MORO, priority 2018, dated 2024).

“Also recorded” adds a separate entry of the source.

Test [1] is described as follows: Clinical data of DBA/2J mice (controls and STZ diabetic): body weight, kidney weight, blood glucose, urinary volume. The class given is in vivo, mice (DBA/2J). Further details: Blood glucose at sacrifice: unit: mg/dl. The conditions noted are these: for Kidney Weight: in g (unit assumed). How it is done: The animal model employed is the murine model DBA/2J. 8-weeks-old mice received daily intraperitoneal injections for five consecutive days of either sodium citrate (females, control group) or streptozotocin (STZ, 45 mg/kg, pH4.5, dissolved in sodium citrate) for the study group (males). Only those animals showing a blood glucose level above 250 mg/dl were included in this study. Five weeks following the last STZ injection, animals were treated with NSC697923 dissolved in PBS (3 mg/kg, 3 times a week for 6 weeks) and/or […] (2 mg/kg, 3 times a week for 6 weeks) dissolved in DMSO 2% either alone or in combination [NSC697923 (3 mg/kg)+[…] (2 mg/kg) 3 times a week for 6 weeks]. Serum and 24 h urine samples were collected at the end of the treatment. Kidney samples were collected at sacrifice and immediately fixed in formalin and embedded in paraffin.

Test [2] relates to diabetic mice (STZ). As to the kind of experiment: Urinary albumin analysis (Mouse Albumin ELISA Kit) in 24 h urine. The test is classed as in vivo, mice (DBA/2J). The conditions noted are these: for ug urine albumin 24 h: 24 h urine. How it is done: (§1) The animal model employed is the murine model DBA/2J. 8-weeks-old mice received daily intraperitoneal injections for five consecutive days of either sodium citrate (females, control group) or streptozotocin (STZ, 45 mg/kg, pH4.5, dissolved in sodium citrate) for the study group (males). Only those animals showing a blood glucose level above 250 mg/dl were included in this study. Five weeks following the last STZ injection, animals were treated with NSC697923 dissolved in PBS (3 mg/kg, 3 times a week for 6 weeks) and/or RAMIPRIL (2 mg/kg, 3 times a week for 6 weeks) dissolved in DMSO 2% either alone or in combination [NSC697923 (3 mg/kg)+RAMIPRIL (2 mg/kg) 3 times a week for 6 weeks]. Serum and 24 h urine samples were collected at the end of the treatment. Kidney samples were collected at sacrifice and immediately fixed in formalin and embedded in paraffin.
Urinary albumin concentration was measured in the urine of these animals using the commercially available Mouse Albumin ELISA Kit (Abcam). The urinary albumin values were normalized to the total urinary protein content compared to the total volume of urines produced during the 24 h before sacrifice.
(In an ELISA, binding on a coated surface is turned into a signal by an enzyme label.)

Test [3] concerns Lysine 63 ubiquitinated proteins (Lys63-Ub). As to the kind of experiment: Immunohistochemistry of lysine 63 ubiquitinated proteins on renal tissue. The test is classed as in vivo, mice (DBA/2J). The following applies: diabetic mice (STZ). How it is done:
Tissue samples were obtained from kidney of DBA/2J mice. Following sacrifice, tissues were fixed in 4% formaldehyde. In order to evaluate the accumulation of proteins undergoing Lysisine63-linked ubiquitylation through immunohistochemistry, dewaxed and unmasked sections were incubated 10 min in H2O2 and 5 min in Triton 0.25% at ambient temperature. Sections were then blocked 10 min with Protein block (Dako, Glostrup, Denmark) and then incubated 1 h with the specific antibody against and lysine63-linked ubiquitylation. […] Sections were stained with hematoxylin and slides were mounted with glycerol. The negative control sample lacks the primary antibody incubation step. The signal is then quantified using the Positive Pixel Count v9_v10.0.0.1805 algorithm (Aperio Technologies) that measures the number of […].
The animal model employed is the murine model DBA/2J. […]
(§2) Lysine 63 ubiquitinated proteins accumulation has been evaluated by immunohistochemistry on renal tissues from the mice model of diabetic nephropathy (DBA/2J mice+streptozotocin-STZ); the degree of fibrosis in these samples has been evaluated by Sirius Red Fast Green staining.

Test [4] relates to diabetic mice (STZ). Briefly: Sirius Red/Fast Green staining of tubular-interstitial fibrosis in kidney. The class given is in vivo, mice (DBA/2J). How it is done: Tissue samples were obtained from kidneys of DBA/2J mice following sacrifice. Tissue was fixed in 4% formaldehyde. Following dewaxing and hydration, sections were incubated with Bouin's solution overnight at ambient temperature. Sections were then rinsed using running tap water to remove all the fixative residues and incubated 1 h at ambient temperature with the Sirius Red/Fast Green dye combination 1:1.
as §1, with “Serum and 24 h urine samples were collected at the end of the treatment. Kidney samples were collected at sacrifice and immediately fixed in formalin and embedded in paraffin.” left out
as §2

Test [5] relates to α-sma expression in HK2 cells. As to the kind of experiment: Western blotting of α-sma in HK2 cells under high glucose. The test is classed as cell-based, human. The conditions noted are these: Example 3, FIG. 3, high glucose 30 mM, NSC697923 1 μM, Ramipril 10 μM. How it is done: (§3) HK2 cells, a line of Renal Proximal Tubule Epithelial Cells (PTEC) obtained from a human control kidney, were purchased from the American Type Culture Collection (ATCC, Rockville, MD). Cells were cultured in DMEM growth medium low glucose (5.5 mM) with the addition of 10% fetal bovine serum (FBS), 1% Penicillin and Streptomycin and 1% L-Glutamine (Sigma-Aldrich, Munich, Germany). Prior to each passage, cells reaching confluence were rinsed with phosphate-buffered saline (PBS), trypsinized with Trypsin 0.05% and Ethylenediaminetetraacetic acid (EDTA) 0.02% in PBS and seeded in complete growth medium with or without the addition of D-Glucose 24.5 mM (final concentration in hyperglycemia HG=30 mM) or L-Glucose 24.5 mM as osmolarity control, for each predetermined time point. Cells were then incubated at 37° C. in 5% CO2.
Cells were plated in six-well plates and incubated to reach confluence. Cells were then exposed to either D- or L-Glucose at a concentration of 30 mM for the indicated time point. […]
By western blotting on cultured immortalized renal tubular cells (HK2) we evaluated the protein expression levels of α-sma, a marker of epithelial-to-mesenchymal transition.
(In general: Immunoblotting shows a protein as a band on a membrane.)

Test [6] deals with α-sma expression in HK2 cells. Briefly: Immunofluorescence/confocal microscopy of α-sma in HK2 cells under high glucose. The class given is cell-based, human. The conditions noted are these: NSC697923 1 μM. How it is done:
as §3
(§4) The cellular distribution of the proteins showing lysine63-linked ubiquitylation and the expression of the mesenchymal marker α-sma was evaluated in HK2 cells through indirect immunofluorescence and confocal microscopy analysis following incubation with specific antibodies. For each condition, 150.000 cells were plated on sterile glass slides and then incubated with D- or L-Glucose 30 mM for the indicated time point. In some predetermined conditions, the specific inhibitor of Lysine63-linked ubiquitylation, NSC697923, was pre-incubated at a 1 μM final concentration, 1 h prior to the addition of glucose and/or the ACE-inhibitor Ramipril at a final concentration of 10 μM and/or the SGLT2 inhibitor Empaglifozin at a 500 nM final concentration. Following stimulation, HK2 were fixed 15 min in paraformaldehyde 4%, treated 5 min with Triton-X 100 0.1% in PBS, and incubated 1 h in blocking buffer (goat serum 4%+BSA 2%). Cells were then incubated 1 h with the specific antibodies against α-sma and lysine63 ubiquitin diluted in blocking buffer. The antigen-antibody complex was then identified using a secondary fluorescent antibody (specifically Alexa Fluor 555 goat anti-rabbit and Alexa Fluor 488 goat anti-mouse). Prior to the incubation with the secondary antibody, cells were rinsed three times in PBS. Cells nuclei were then stained using TO-PRO-3 diluted in PBS and slides were mounted. The negative control was obtained incubating cells in blocking without the addition of the primary antibody. The fluorescence signal was then acquired using the Leica TCS SP2 confocal microscope and images were saved at a 63× zoom using the microscope software. Signal was finally quantified measuring the area % of fluorescent signal compared to the background.

The subject of test [7] is Lysine 63 ubiquitinated proteins in HK2 cells. Briefly: Immunofluorescence/confocal microscopy of lysine 63 ubiquitinated proteins in HK2 cells under high glucose. The following applies: high glucose 30 mM, NSC697923 1 μM. The test is classed as cell-based, human. How it is done:
as §3, §4

Test [8] concerns immortalized human renal tubular cells HK2. The conditions noted are these: in vitro cellular model of HK2 cells; Pontrelli et al. FASEB J 2017; cited from earlier work.
Setting [9] is: Table 1, diabetic (STZ) DBA/2J mice, NSC697923 3 mg/kg 3 times a week for 6 weeks.
[10] abbreviates: Table 1, non-diabetic DBA/2J mice, NSC697923 3 mg/kg 3 times a week for 6 weeks.
Setting [11] is: Table 2, diabetic (STZ) DBA/2J mice, NSC697923 3 mg/kg and/or Ramipril 2 mg/kg 3 times a week for 6 weeks.
Where [12] appears, read: Example 6, FIG. 6, compared to untreated diabetic mice or mice treated with ACE inhibitors alone.
Where [13] appears, read: Example 8, FIG. 8a, high glucose 30 mM, Empaglifozin 500 nM.
Where [14] appears, read: Example 4, FIG. 4b, Ramipril 10 μM.
The mark [15] stands for this setting: Example 8, FIG. 8b, Empaglifozin 500 nM.
The mark [16] stands for this setting: Table 2, non-diabetic DBA/2J mice, NSC697923 3 mg/kg and/or Ramipril 2 mg/kg 3 times a week for 6 weeks.

With `Cc1ccc(S(=O)(=O)c2ccc([N+](=O)[O-])o2)cc1` [NSC697923, 2-(4-methylphenyl)sulfonyl-5-nitrofuran], the results for the “Blood glucose at sacrifice” value in test [1] (setting [9]), in test [1] (setting [10]) and in test [1] (setting [11]) were 540.5 ± 33.05, 118.8 ± 10.44 and 594.28 ± 7.95, respectively. In addition, the “Urinary Volume (mL/24 h)” value was 25.83 ± 12.58 mL/24 h in test [1] (setting [9]), 0.33 ± 0.17 mL/24 h in test [1] (setting [10]) and 24.85 ± 7.78 mL/24 h in test [1] (setting [11]). The entries for the “Kidney Weight” value in test [1] (setting [9]), in test [1] (setting [10]) and in test [1] (setting [11]) were 0.33 ± 0.079, 0.24 ± 0.018 and 0.38 ± 0.05, respectively. Moreover, the “effect on urinary albuminuria” value in the test with diabetic mice (STZ) [2] (Example 2, first group of animals, treated diabetic mice (STZ+NSC697923) compared to untreated diabetic mice (STZ)) was “has no effect; also recorded: not able to reduce”. Moreover, the “ug urine albumin 24 h” value with diabetic mice (STZ) [2] (setting [9]) is 724.25 ± 690.89 µg; in the test on diabetic mice (STZ) [2] (setting [11]) it was 439.29 ± 211.2 µg. The “accumulation of lysine 63 ubiquitinated proteins in kidney” value was “significantly reduces” in test [3] (Example 1, FIG. 1, NSC697923 3 mg/kg 3 times a week for 6 weeks, vs untreated STZ) and “significant reduction” in test [3] (setting [12]). The “degree of tubular-interstitial fibrosis (Sirius Red Fast Green)” value in the test with diabetic mice (STZ) [4] (Example 1, FIGS. 1 and 2, NSC697923 3 mg/kg 3 times a week for 6 weeks, vs untreated STZ, 3 mg/kg) is reported as “significantly reduces; also recorded: capable of reducing”. The “degree of fibrosis (Sirius Red Fast Green)” value with diabetic mice (STZ) [4] (setting [12]) was “significant reduction”. For the same molecule, the “α-sma expression (western blotting, normalized to actin)” value in test [5] is reported as “reduced”. Besides, the “α-sma expression (confocal microscopy)” value in test [6] (setting [13]) is “reduces both processes”; in test [6] (Examples 4 and 5, FIGS. 4a and 5, high glucose 30 mM, Ramipril 10 μM), “reduces both processes; also recorded: able to inhibit”. For the same molecule, the “accumulation of lysine 63 ubiquitinated proteins (confocal microscopy)” value (“accumulation … (confocal microscopy)” for short) in test [7] (setting [14]) and in test [7] (setting [15]) was “reduces both processes” throughout. Moreover, the “epithelial to mesenchymal transition” value in test [8] is “blocks”.
Turning to `CCOC(=O)[C@H](CCc1ccccc1)N[C@@H](C)C(=O)N1[C@H](C(=O)O)C[C@@H]2CCC[C@@H]21` [RAMIPRIL, Ramipril], in test [1] (setting [11]), the “Blood glucose at sacrifice” value worked out at 555.71 ± 71.48, the “Urinary Volume (mL/24 h)” value was 29.64 ± 9.51 mL/24 h and the “Kidney Weight” value came out at 0.37 ± 0.054. In addition, in test [1] (setting [16]), the “Blood glucose at sacrifice” value was determined as 112 ± 9.14 and the “Kidney Weight” value is on record as 0.242 ± 0.027. In addition, the “ug urine albumin 24 h” value with diabetic mice (STZ) [2] (setting [11]) is 388.79 ± 79.78 µg. For the same molecule, in the test on diabetic mice (STZ) [2] (setting [16]), the “ug urine albumin 24 h” value is 128.54 ± 55.94 µg. Besides, the “α-sma expression (western blotting, normalized to actin)” value in test [5] is listed as “have no effect”. In addition, the “α-sma expression (confocal microscopy)” value in test [6] (Examples 4 and 5, FIGS. 4a and 5, high glucose 30 mM, Ramipril 10 μM, listed as ACE inhibitors) is “do not block; also recorded: do not reduce”. Besides, the “accumulation … (confocal microscopy)” value in test [7] (setting [14]) is on record as “do not reduce”.
On to `OC[C@H]1O[C@@H](c2ccc(Cl)c(Cc3ccc(O[C@H]4CCOC4)cc3)c2)[C@H](O)[C@@H](O)[C@@H]1O` [SGLT2 receptor inhibitors, Empaglifozin], for which the “α-sma expression (confocal microscopy)” value in test [6] (setting [13]) is recorded as “partially reduce”. Besides, the “accumulation … (confocal microscopy)” value in test [7] (setting [15]) is reported as “do not reduce”.
